According to patent US20250011781A1, “METHODS AND COMPOSITIONS TARGETING NUCLEUS ACCUMBENS-ASSOCIATED PROTEIN-1 FOR TREATMENT OF AUTOIMMUNE DISORDERS AND CANCERS” (THE TEXAS A&M UNIVERSITY SYSTEM, priority 2021, published 2025):

Key:
mouse CD8+ T cells = mouse CD8+ T cells cultured in CM from NAC1 KO B16-OVA cells supplemented with LA; type: cell-based; conditions: 2 mM or 5 mM LA
Description: Next, mouse CD8^+ T cells in the CM from NAC1 KO mouse B16-OVA cells were cultured and the medium was supplemented with or without 2 mM or 5 mM LA. The addition of LA reduced the production of cytokines including TNF-alpha and IFN-gamma and increased the expression of PD-1 and TIM-3 of CD8^+ T cells (FIGS. 9A-9D). […] In parallel, NAC1 KO tumor cells were transfected with an LDHA expression retroviral vector or a retroviral backbone to overexpress LDHA in NAC1 KO B16-OVA. The mouse CD8^+ T cells in the CM were cultured from NAC1 KO B16-OVA cells overexpressing LDHA (NAC1 KO LDHA OE) or an empty control (NAC1 KO Mock). The overexpression of LDHA conferred NAC1 KO mouse tumor cells with the ability to suppress the production of cytokines and increased expression of PD-1 (FIGS. 9I-9L) and apoptosis (FIGS. 9M-9P) of mouse cytotoxic CD8^+ T cells.
In vitro analysis of CD8^+ T cells. For cytotoxicity analysis, after 24 hours of activation 5×10^5 CD8^+ T cells were cultured with WT B16-OVA and NAC1 KO B16-OVA tumor cells in the ratio of 1:5 and 1:10 respectively. Cytotoxicity was measured by the CytoTox 96 Non-Radioactive Cytotoxicity Assay from Promega (#G1780, Madison, Wisconsin, USA). For cytokine expression analysis, the CD8^+ T cells were cultured with the conditional medium (CM) that was collected from WT B16-OVA and NAC1 KO B16-OVA melanoma cells for 12 hours. Before harvesting the cells, the cells were blocked with the Monensin Solution from BioLegend (#420701, San Diego, California, USA) for 4 hours. For apoptosis analysis, after 12 hours of activation the CD8^+ T cells were incubated with the CM that was collected from WT B16-OVA and NAC1 KO B16-OVA cells for 12 hours, in the absence or presence of L-LA from Sigma-Aldrich (St Louis, MI). […]
Flow Cytometric analysis. […] Stained cell populations were acquired by LSRFortessa from BD Biosciences (Franklin, New Jersey, USA), and the results were analyzed by using FlowJo software from Tree Star (Ashland, Oregon, USA).

Tregs = experiment: treatment of Tregs with pro-inflammatory cytokines; type: cell-based, mouse
Description: T cell culture. T cells were cultured in 48-well plates containing 1 ml RPMI 1640 (Invitrogen) with 10% fetal calf serum (Omega Scientific, CA). T cell isolation kits including mouse CD4^+ (#130-104-454), CD8a^+ (#130-104-075) and CD4^+ CD25^+ Treg (#130-091-041), T cell activation/expansion kit (#130-093-627) and Treg expansion kit (#130-095-925) were purchased from the Miltenyi Biotec (Auburn, CA). Recombinant mouse TGF-β (#763104), IL-10 (#575106), and TNF-α (#575206) were obtained from BioLegend (San Diego, CA).

NAC1 = target: T1, NAC1 (Homo sapiens, UniProt Q96RE7); conditions: cited from earlier work
T1 sequence (Q96RE7 1-527): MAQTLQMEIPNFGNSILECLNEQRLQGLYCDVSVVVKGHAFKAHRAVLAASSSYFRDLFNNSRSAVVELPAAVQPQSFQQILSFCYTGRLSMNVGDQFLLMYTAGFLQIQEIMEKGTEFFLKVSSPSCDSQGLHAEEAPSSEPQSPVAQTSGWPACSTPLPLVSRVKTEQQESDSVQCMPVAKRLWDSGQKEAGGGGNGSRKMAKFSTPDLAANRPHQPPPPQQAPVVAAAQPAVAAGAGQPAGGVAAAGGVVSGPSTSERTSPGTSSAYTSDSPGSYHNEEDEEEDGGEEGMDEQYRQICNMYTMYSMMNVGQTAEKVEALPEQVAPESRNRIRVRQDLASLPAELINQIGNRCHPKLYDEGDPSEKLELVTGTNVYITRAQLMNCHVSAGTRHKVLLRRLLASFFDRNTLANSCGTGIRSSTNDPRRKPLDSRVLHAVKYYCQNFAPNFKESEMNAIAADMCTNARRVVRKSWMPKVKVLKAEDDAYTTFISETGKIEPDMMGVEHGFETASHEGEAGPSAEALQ

tumor growth = conditions: cited from earlier work

CC(O)C(=O)O (stereo not drawn) [LA, lactic acid]
apoptosis determined by Annexin V staining (mouse CD8+ T cells): higher percentage of apoptosis | expression of PD-1 and TIM-3 of CD8+ T cells (mouse CD8+ T cells): increased | production of cytokines including TNF-alpha and IFN-gamma (mouse CD8+ T cells): reduced

TNF-α
FoxP3 and acetylated FoxP3 in Tregs (Tregs): evident downregulation | NAC1 expression in Tregs (Tregs): robust upregulation

CC(C)(C)c1ccc(OCC(=O)NCCNC(=O)COc2ccc(C(C)(C)C)cc2)cc1 [NIC3]
NAC1 homodimerization (NAC1): can interrupt NAC1 homodimerization | antitumor activity (tumor growth): shows antitumor activity

B1: IL-10: recombinant mouse cytokine from BioLegend (protein, UniProt P18893 19-178, looked up)
Interleukin-10: SRGQYSREDNNCTHFPVGQSHMLLELRTAFSQVKTFFQTKDQLDNILLTDSLMQDFKGYLGCQALSEMIQFYLVEVMPQAEKHGPEIKEHLNSLGEKLKTLRMRLRRCHRFLPCENKSKAVEQVKSDFNKLQDQGVYKAMNEFDIFINCIEAYMMIKMKS
FoxP3 and acetylated FoxP3 in Tregs (Tregs): evident downregulation | NAC1 expression in Tregs (Tregs): robust upregulation
